Source: patent US9050298B2, “Method of treating ischemia/reperfusion injuries to a heart with netrin-1” (The Regents of the University of California, priority 2010, dated 2015)
Entries after “also recorded” stand apart in the source; their conditions may differ.

Experiments:
cardiac NO production = assay: ESR detection of nitric oxide in Langendorff perfused heart homogenates; set-up: species or system mouse; settings: agent prior to netrin-1, I/R; vs. untreated I/R controls
Procedure: Langendorff perfusion: The mice were anesthetized with intraperitoneal pentobarbitone (60 mg/kg). Hearts were harvested and rapidly transferred into ice-cold Krebs-Henseleit buffer (KHB). […] NaCl118.0, KCl 4.7, CaCl2 2.5, MgSO4 1.2, KH2PO4 1.2, NaHCO3 25.0, D-Glucose 10 at constant pressure (80±1 mmHg) using a peristaltic pump and feedback system. For no I/R setting, hearts were perfused with KHB or netrin-1 for 120 min. […] These experimental protocols are illustrated in FIG. 7. Electron spin resonance detection of nitric oxide radical: Bioavailable nitric oxide radical (NO) from cells or tissues was detected using electron spin resonance (ESR) as described. See Nguyen et al. (2006) PNAS USA 103:6530-5; and Youn et al. (2009) Circ. Res 104:50-59, which are herein incorporated by reference. […] Gently collected homogenates or cell suspensions were snap-frozen in liquid nitrogen and loaded into a finger Dewar for analysis with an eScan electron spin resonance (ESR) spectrophotometer (Bruker, Freemont, Calif.) at the following settings: center field, 3410; field sweep, 100 G; microwave frequency, 9.73 GHz; microwave power, 13.26 mW; modulation amplitude, 9.82 G; 512 points resolution and receiver gain, 356.

[1] = tested on: mouse heart ischemia/reperfusion injury; assay: Langendorff I/R, netrin-1 given post-conditionally at onset of reperfusion, TTC infarct size; settings: for Infarct size, inhibitor alone: given at reperfusion without netrin-1; for Effect of netrin-1 postconditioning on infarct size, inhibitor co-treatment: inhibitor with netrin-1
From the text: FIG. 17 diagrammatically provides the experimental protocols of the isolated C57BL/6J WT, DCC +/+ and +/−mice heart experiments with netrin-1 added post-conditionally. Data included in up to FIG. 16 indicated preventative role of netrin-1 in cardiac I/R injury when netrin-1 was given pre-conditionally ([…]). These new set of experiments are however critical in understanding if netrin-1 exerts cardioprotective effects when delivered as a post-conditioning agent at the onset of reperfusion (i.e. together with PTCA procedure). All hearts were stabilized for 40 min prior to experiments. Control hearts received 20 min of global no-flow ischemia followed by 60 min of reperfusion. Netrin-1 was given at the onset of the reperfusion. The signaling pathway inhibitors were given either alone accordingly or with the netrin-1 treatment. The arrows indicate the time for myocardial infarct sizing with 2,3,5-TTC (TTC) and for protein analysis by Western blot (WB). ▪=global no-flow ischemia.
Langendorff perfused hearts isolated from C57BL/6J wild-type (WT) control mice or DCC +/−mice underwent 20-min of global ischemia followed by 60-min of reperfusion. DCC (deleted in colorectal cancer) is one of the netrin-1 receptors we found to be however specifically involved in netrin-1 preconditioning induced cardioprotection. Netrin-1 was infused postconditionally at the onset of reperfusion at 100 ng/mL concentration with and without U0126, a specific MEK1/2 inhibitor, or 2-Phenyl-4,4,5,5-tetramethylimidazoline-1-oxyl-3-oxide (PTIO), a nitric oxide (NO)-scavenger. Infarct size was determined to evaluate the severity of myocardial injury using TTC staining, and protein kinase activations determined by Western blot analysis.

[2] = tested on: infarct size post I/R insult; settings: nitrite supplementation; cited from earlier work
[3] = tested on: mouse heart ischemia/reperfusion injury; assay: Langendorff perfused mouse heart, global ischemia/reperfusion, infarct size by TTC (netrin-1 pre-perfusion); settings: agent 30 min prior to netrin-1 (100 ng/ml, 45 min), then I/R
Procedure: Langendorff perfusion: The mice were anesthetized with intraperitoneal pentobarbitone (60 mg/kg). Hearts were harvested and rapidly transferred into ice-cold Krebs-Henseleit buffer (KHB). […] NaCl118.0, KCl 4.7, CaCl2 2.5, MgSO4 1.2, KH2PO4 1.2, NaHCO3 25.0, D-Glucose 10 at constant pressure (80±1 mmHg) using a peristaltic pump and feedback system. For no I/R setting, hearts were perfused with KHB or netrin-1 for 120 min. […] These experimental protocols are illustrated in FIG. 7. Infarct size analysis: […] The heart slices were then digitally photographed for planimetry using NIH Image 1.62. Infarct size is expressed as an infarct-to-risk zone ratio (the risk zone is the whole ventricular volume in this global ischemic model).

[4] = tested on: I/R-induced cardiac apoptosis; assay: TUNEL apoptosis detection in post-I/R heart sections; set-up: species or system mouse; settings: agent + netrin-1, I/R
Procedure: Detection of apoptosis: Apoptosis was detected by the apoptosis detection kit (Chemicon International, Inc., Billerica, Mass.) according to the manufacturer's protocol. At the end of the experimental protocols frozen heart sections (12 μm) were fixed with 1% formalin for 10 min at room temperature (RT) and washed twice in PBS, permeabilized with ethanol/acetic acid (2:1) for 5 min at −20° C., washed twice in PBS, and then incubated for >10 sec with the equilibration buffer. Subsequently, the sections were incubated for 1 hr with DIG-conjugated dUTP and TdT enzymes at 37° C., and then for 10 min in the stop buffer at room temperature (RT), and finally washed three times in PBS. The sections were then incubated with FITC-conjugated anti-DIG antibody for 30 min at RT, and washed three times in PBS. Cover-slipped sections were mounted with medium containing 0.5 μg/ml of propidium iodide. […] TUNEL assay was performed to determine whether netrin-1 inhibits apoptotic cell death induced by I/R. Left ventricular sections were incubated with FITC-conjugated anti-DIG antibody and coverslipped with the mounting medium containing 0.5 μg/ml of Propidium Iodide (PI).

DCC/ERK1/2/eNOS pathway = assay: Western blot / RT-PCR of DCC, ERK1/2, eNOS signalling in perfused hearts; set-up: species or system mouse; settings: agent + netrin-1, I/R
Procedure: RT-PCR and Western blot: Total RNA was extracted from mouse hearts using TRIzol (Invitrogen, Carlsbad, Calif.) according to the manufacturer's instructions. Reverse transcription was performed in standard fashion with iScript cDNA Synthesis Kit (Bio-Rad, Hercules, Calif.). PCR was performed using the following primer pairs: PCRs were carried out on an iCycler (Bio-Rad, Hercules, Calif.) including primers generated for GAPDH, ((95° C./2 min), (95° C./25 sec, 57° C./5 sec, 68° C. 5 min)×35, (72° C./10 min)). Western blot analysis was performed as previously published. See Youn et al. (2009) Circ. Res 104:50-59, which is herein incorporated by reference. For no I/R setting, hearts were perfused with KHB or netrin-1 for 120 min. […] These experimental protocols are illustrated in FIG. 7.

[5] = tested on: Bovine aortic endothelial cells (BAEC); assay: DCC expression in NO donor-treated BAECs; type: cell-based; settings: NO donor 1 mmol/L, 2 hr
isolated cardiomyocytes = assay: DCC expression in NO donor-treated isolated cardiomyocytes; type: cell-based, mouse; settings: NO donor 1 mmol/L, 2 hr
Procedure: NaCl 130, KCl 5.4, MgSO4 1, NaH2PO4 0.6, D-Glucose 10, HEPES 10, which was continuously bubbled with 95% O2+5% CO2. The enzymatic digestion was commenced by adding collagenase type II (Worthington Biochemical Corp., Lakewood, N.J., 0.56 mg/ml each) to the perfusion buffer and continued for 20 min. The heart was cut down and placed in the Petri dish with perfusion solution. The digested ventricular tissues were cut into 2-3 mm pieces and gently aspirated with a transfer pipette to facilitate cell dissociation. The myocytes were allowed to sediment by gravity for 8-10 min in the 15-ml Falcon tubes.

[6] = tested on: cardiac superoxide production; assay: Superoxide measurement with ESR in heart homogenates after Langendorff I/R; set-up: species or system mouse; settings: siRNA by tail vein, 2 injections
Procedure: Langendorff perfusion: Animals were initially anesthetized with isoflurane. Hearts from the animals were rapidly removed and transferred to ice cold modified Krebs-Henseleit buffer (KHB), consisting of (in mmol/L): NaCl118.0, KCl 4.7, CaCl2 2.5, MgSO4 1.2, Kh2PO4 1.2, NaHCO3 25.0, Glucose 10, pH 7.35. […] While under perfusion, the heart is kept in a 37° C. chamber. For no I/R, hearts were perfused with KHB for 120 min. […] These treatment protocols are illustrated in FIG. 11A. […] At the end of the Langendorff experiment, hearts were removed from the perfusion apparatus and immediately transferred onto ice awaiting homogenization. […] For Western blot analysis, the supernatant from the homogenate centrifuged at 13,000 rpm for 15 min at 4° C. was used. Superoxide measurements with electron spin resonance (ESR): Superoxide production was measured from heart homogenates using ESR as previously described. Briefly, heart homogenate (10 μg) was mixed in a spin trap solution (CMH, 0.5 mmol/L), loaded into a glass capillary (Fisher Scientific) in the presence or absence of L-NAME (100 μmol/L), and assayed for superoxide using a Bio-Spin ESR spectorphotometer (Bruker) at the following settings: center field 3476; […]; frequency 9.75 GHz; microwave power 21.02 mW; modulation amplitude 2.47 G; 512 points resolution; receiver gain 1000.

NOX4 = assay: Western blot of NOX isoforms from whole heart homogenate; set-up: species or system mouse; settings: NOX4 siRNA in vivo
From the text: Preparation of heart tissue for biochemical assays: At the end of the Langendorff experiment, hearts were removed from the perfusion apparatus and immediately transferred onto ice awaiting homogenization. For superoxide measurement and Western blot analysis, hearts were homogenized with ice cold homogenization buffer (Tris 50 mmol/L, EDTA 0.1 mmol/L, EGTA 0.1 mmol/L, protease inhibitor cocktail, pH 7.4) on ice using a glass homogenizer. For Western blot analysis, the supernatant from the homogenate centrifuged at 13,000 rpm for 15 min at 4° C. was used.
Western blot: Western blotting was performed as per standard protocols. Primary antibody for NOX4 (Abcam, Cambridge, Mass.) was used at a dilution of 1:1000. Primary antibody for actin (Sigma-Aldrich, St. Louis, Mo.) was used at a dilution of 1:3000. Secondary antibody conjugated to HRP (Bio-Rad, Hercules, Calif.) was used at a dilution of 1:2000 for NOX4, and 1:10000 for actin.

NOS = assay: L-NAME sensitive superoxide production (NOS coupling state); set-up: species or system mouse; settings: superoxide with and without L-NAME, I/R hearts
Procedure: Superoxide measurements with electron spin resonance (ESR): Superoxide production was measured from heart homogenates using ESR as previously described. Briefly, heart homogenate (10 μg) was mixed in a spin trap solution (CMH, 0.5 mmol/L), loaded into a glass capillary (Fisher Scientific) in the presence or absence of L-NAME (100 μmol/L), and assayed for superoxide using a Bio-Spin ESR spectorphotometer (Bruker) at the following settings: center field 3476; […]; frequency 9.75 GHz; microwave power 21.02 mW; modulation amplitude 2.47 G; 512 points resolution; receiver gain 1000. Netrin-1 attenuates I/R induced NOS uncoupling: To assess the coupling state of NOS under I/R and netrin-1-infused I/R conditions, superoxide production was measured with and without the addition of L-NAME, a general inhibitor of NOS. Under normal conditions when NOS is coupled, it produces nitric oxide (NO). Therefore, the addition of L-NAME will reduce the level of NO, resulting in an increase in measured superoxide production. On the other hand, if NOS is uncoupled and is producing superoxide, the addition of L-NAME will reduce measured superoxide. […] Using this method, the coupling state of whole heart homogenate from each condition was measured (n=5 each condition), with the results shown in FIG. 13.

heart mitochondria = assay: Mitochondrial swelling assay on mitochondria from perfused hearts; set-up: species or system mouse; settings: isolated mitochondria, absorbance 540 nm
Procedure: Mitochondria isolation: Heart tissue was rinsed twice in ice cold PBS immediately after the end of the Langendorff experiment. The tissue was then homogenized in a pre-chilled glass homogenizer using isolation buffer I (sucrose 250 mM, EGTA 1 mM, HEPES10 mM, and Tris-HCl 10 mM, pH 7.4, 1 ml buffer/0.1 g tissue) on ice. The homogenate was then centrifuged at 800 g for 7 min at 4 C. The supernatant was then transferred to a new tube and centrifuged at 4000 g for 15 min at 4° C. The pellet was rinsed using 1 ml of isolation buffer II (sucrose 250 mM, HEPES 10 mM, Tris-HCl 10 mM, pH 7.4), then centrifuged again at 4000 g for 15 min at 4° C. Further purification was performed by resuspending the pellet with 3 ml of a 19% percoll solution, then layering this on top of a double layer of 30% and 60% percoll solution in a centrifugation tube. The entire tube was spun for 60 min at 1,000 g. The mitochondria layer in the tube was carefully removed. Percoll was washed from the sample by alternating centrifugation and resuspension with isolation buffer II. The final pellet was resuspended in isolation buffer II.
Mitochondrial swelling assay: 30 μg of freshly isolated mitochondria were mixed in a buffer containing 250 mM sucrose and 10 mM Tris (pH 7.4). The mixture was then incubated with 5 mM succinate for 1 minute at room temperature, then with 250 μM of CaCl2. Absorbance at 540 nm was measured immediately for 20 min at 1 minute intervals. Swelling was measured as a decrease in absorbance over time.

[7] = tested on: mouse heart ischemia/reperfusion injury; assay: Langendorff I/R, TTC infarct size, NOX4 siRNA or sepiapterin; settings: TTC staining

Row | Molecule | Netrin-1 stimulated NO production in hearts pre-perfused with the agent (cardiac NO production) | Infarct size, inhibitor alone [1] | Effect of netrin-1 postconditioning on infarct size, inhibitor co-treatment [1] | NOS coupling state under I/R (NOS) | Mitochondrial function (swelling) in I/R hearts (heart mitochondria) | Infarct size after I/R [7] | further results
1 | CC1(C)N([O])C(c2ccccc2)=[N+]([O-])C1(C)C [PTIO, 2-phenyl-4,4,5,5-tetramethylimidazoline-1-oxyl 3-oxide] | attenuated | no effect | abolished |  |  |  | 
2 | O=NO [Nitrite] |  |  |  |  |  |  | reduction in infarct size post I/R insult [2]: 48%
3 | N#CC(=C(N)Sc1ccccc1N)C(C#N)=C(N)Sc1ccccc1N [U0126, 1,4-diamino-2,3-dicyano-1,4-bis (2-aminophenylthio)butadiene] | 1.12±0.15 fold | no effect | abolished |  |  |  | Infarct size / cardioprotection in netrin-1-perfused hearts pre-perfused with the agent [3]: 41.3±4.1%; TUNEL positive cells, agent prior to netrin-1 [4]: 19.24±2.4%; Netrin-1 increase in phosphorylated ERK1/2 and eNOSs1177, agent prior to netrin-1 (DCC/ERK1/2/eNOS pathway): inhibited; Netrin-1 restoration of DCC protein expression, agent prior to netrin-1 (DCC/ERK1/2/eNOS pathway): abolished; AKT phosphorylation after the entire I/R procedure (DCC/ERK1/2/eNOS pathway; data not shown): unaffected
4 | CNCCCCCCN(C)/[N+]([O-])=N/O [MAMANOATE] |  |  |  |  |  |  | DCC protein expression in cultured ECs [5]: increased DCC protein expression; DCC protein expression in cardiomyocytes (isolated cardiomyocytes): increased DCC protein expression
5 | NOX4 siRNA: in vivo grade siRNA against NOX4 (SEQ ID NO:19, 20) delivered with nanoparticle transfection kit (chain 1 CAUGCUGCUGCUGUUGCAUGUUUCA; chain 2 CCCUCUGAUGUAAUGGAACUCCGUA; nanoparticle delivery, further chemistry not given here) |  |  |  | functional NOS; also recorded: restored | marked improvement; also recorded: improved | markedly reduced | superoxide levels in NOX4 siRNA treated hearts compared to controls [6]: increased; NOX4 protein expression in hearts of siRNA treated mice (NOX4): successful silencing
6 | C[C@H](O)C(=O)C1=Nc2c(nc(N)[nH]c2=O)NC1 [sepiapterin] |  |  |  | effective in recoupling NOS; also recorded: recouples NOS | improving mitochondria function; also recorded: improving mitochondrial function | effective in reducing infarct size | Mitochondrial function (swelling) in I/R hearts (heart mitochondria; listed as Sepiapterin): restored mitochondria function; also recorded: effectively diminished mitochondrial dysfunction
